Entries after “also recorded” stand apart in the source; their conditions may differ. Like-named read-outs stand apart in the source and are kept apart here.
Assays:
[1] = test system: store-operated calcium entry in RBL-2H3 cells; test: Fluorescence (FLUO-4/FLIPR384) store-operated calcium entry screening assay; type: cell-based, rat; conditions: for inhibition at 10 µM: RBL-2H3; for inhibition at 10 µM / % Inhibition at 10 μM: cell line not stated; for IC50: Up slope parameter, RBL-2H3 cells
Protocol: Fluorescence-based assays were used for screening the compounds described herein, such as compounds of Formula (I) and Formula (II), which modulate intracellular calcium.
RBL-2H3 cells plated in 384-well plates were loaded for 45 min with FLUO-4-AM (2 μM final concentration) in HBSS. Cells were washed and placed in a nominally Ca^2+- and Mg^2+-free Hanks solution. One minute later, a test agent or vehicle was added. After a 15 minute incubation period, 1 μM thapsigargin (Tg) was added to inhibit the ER Ca^2+ pump and discharge intracellular Ca^2+ stores. Fifteen minutes after addition of Tg, store-operated calcium entry was initiated by adding external Ca^2+ to a final concentration of 1.8 mM and the cells monitored for a further 10-15 minutes. Calcium levels were monitored throughout the assay using a FLIPR^384 (Molecular Devices fluorimetric imaging plate reader for high throughput screening).
A similar screening assay procedure was used with HEK293 and RBL-2H3 cells.
The kinetic data from the FLIPR^384 were analyzed and then stored in a relational database (ActivityBase; IDBS). Ten quantitative parameters were calculated that define various aspects of the store-operated calcium entry response. These parameters are as follows:
Up slope: linear regression of the increase in RFU from 2 to 30 sec after addition of Ca^2+.
Combinations of these parameters were used to characterize the compounds of Formula (I). Compounds were retested under identical conditions to confirm their activity. Compounds with confirmed activity were then analyzed for concentration-dependent effects, and subsequently, those compounds displaying concentration-dependent effects were categorized as compounds that modulate intracellular calcium.

HEK-Zeo control cells = conditions: read-out: IC50 for inhibition of calcium entry, HEK-Zeo control cells; thapsigargin-mediated store depletion, readdition of external calcium
Protocol: (§1) To test whether the Ca^2+ entry pathway activated by STIM1 overexpression is pharmacologically similar to endogenous SOCE, HEK[STIM1] cells were pre-incubated with increasing doses of 2-APB and STIM1-dependent Ca^2+ entry was measured.

HEK[STIM1] cells = test: STIM1-dependent Ca2+ entry in STIM1-overexpressing cells; type: cell-based, human
Protocol: as §1

hOrail/hSTIM1 [2] = target: T1, hOrail/hSTIM1 (Homo sapiens, UniProt Q96D31); test: Recombinant hOrail/hSTIM1-dependent Ca2+ entry in stable cells; type: cell-based; conditions: FIG. 14
T1 construct: expressed in transfected cells
T1 sequence (Q96D31 whole entry): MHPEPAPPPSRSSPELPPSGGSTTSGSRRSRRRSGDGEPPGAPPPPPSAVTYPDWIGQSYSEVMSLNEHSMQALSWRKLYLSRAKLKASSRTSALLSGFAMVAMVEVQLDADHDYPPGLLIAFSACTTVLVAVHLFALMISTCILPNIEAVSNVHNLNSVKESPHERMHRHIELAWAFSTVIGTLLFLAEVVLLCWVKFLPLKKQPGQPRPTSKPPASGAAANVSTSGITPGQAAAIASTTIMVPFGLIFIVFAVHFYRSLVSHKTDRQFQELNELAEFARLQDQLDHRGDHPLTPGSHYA
T1 sequence (Q13586 23-685 partner): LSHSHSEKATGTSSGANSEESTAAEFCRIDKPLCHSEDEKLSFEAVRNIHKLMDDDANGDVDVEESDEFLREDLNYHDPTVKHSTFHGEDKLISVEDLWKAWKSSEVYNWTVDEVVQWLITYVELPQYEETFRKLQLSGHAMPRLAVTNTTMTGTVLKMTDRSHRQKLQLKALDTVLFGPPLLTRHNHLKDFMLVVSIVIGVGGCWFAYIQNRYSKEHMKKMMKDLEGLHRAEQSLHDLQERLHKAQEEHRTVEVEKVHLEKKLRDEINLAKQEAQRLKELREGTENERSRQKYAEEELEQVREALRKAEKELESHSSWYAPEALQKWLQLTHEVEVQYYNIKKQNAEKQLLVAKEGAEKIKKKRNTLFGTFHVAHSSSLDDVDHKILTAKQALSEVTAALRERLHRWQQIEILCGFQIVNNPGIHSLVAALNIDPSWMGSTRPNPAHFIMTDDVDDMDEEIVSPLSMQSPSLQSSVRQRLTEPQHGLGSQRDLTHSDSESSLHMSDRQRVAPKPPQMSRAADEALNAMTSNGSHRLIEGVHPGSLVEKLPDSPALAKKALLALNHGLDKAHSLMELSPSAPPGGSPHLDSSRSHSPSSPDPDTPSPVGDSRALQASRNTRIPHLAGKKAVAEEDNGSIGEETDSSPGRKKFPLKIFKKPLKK

hOrail/hSTIM1 [3] = target: T1, hOrail/hSTIM1; test: Monster ICRAC in cells stably overexpressing hOrail/hSTIM1; type: cell-based; conditions: FIG. 15

Compound	IC50 ([1]; Rattus norvegicus)	inhibition at 10 µM ([1]; Rattus norvegicus)	also measured
Cc1ccc(-c2csc(NC(=O)c3ccc(Cl)cc3)c2C(=O)O)cc1C [Compound 38, 2-(4-chlorobenzamido)-4-(3,4-dimethylphenyl)thiophene-3-carboxylic acid]	3.8 µM	< 70%	
O=C(Nc1scc(-c2ccc(C(F)(F)F)cc2)c1C(=O)O)c1ccc(F)cc1 [Compound 4, 2-(4-fluorobenzamido)-4-(4-trifluoromethylphenyl)thiophene-3-carboxylic acid]		> 70%	
O=C(Nc1scc(-c2ccc(Cl)cc2)c1C(=O)O)c1cc2ccccc2s1 [Compound 43, 2-(benzothien-2-ylamido)-4-(4-chlorophenyl)thiophene-3-carboxylic acid]			% Inhibition at 10 μM [1]: >70%; IC50 [1]: 1 µM
O=C(Nc1scc(-c2ccc(Br)cc2)c1C(=O)O)c1cc2ccccc2s1 [Compound 14, 2-(benzothien-2-ylamido)-4-(4-bromophenyl)thiophene-3-carboxylic acid]			% Inhibition at 10 μM [1]: >70%; IC50 [1]: 2.4 µM
Cc1cccc(C(=O)Nc2scc(-c3ccc(Br)cc3)c2C(=O)O)c1 [Compound 15, 2-(3-methylbenzamido)-4-(4-bromophenyl)thiophene-3-carboxylic acid]	2.6 µM		
O=C(Nc1scc(-c2ccc(Cl)cc2)c1C(=O)O)c1cccc(F)c1 [Compound 25, 2-(3-fluorobenzamido)-4-(4-chlorophenyl)thiophene-3-carboxylic acid]	1.3 µM		
NCCOB(c1ccccc1)c1ccccc1 [Compound 2-APB, 2-aminoethoxydiphenyl borate]			IC50 (HEK-Zeo control cells): 11.8 µM; effect on STIM1-dependent Ca2+ entry (HEK[STIM1] cells; HEK293 overexpressing STIM1, no Tg store depletion, FIG. 13): biphasic effect; also recorded: both enhances (at low concentrations) and inhibits (at high concentrations); IC50 (HEK[STIM1] cells; HEK[STIM1] cells, entry induced by pretreatment in Ca2+-free buffer, read-out: IC50 for inhibition of Ca2+ entry in the absence of Tg-dependent store depletion): 10.8 µM; IC50 (HEK[STIM1] cells; thapsigargin-mediated store depletion, readdition of external calcium, read-out: IC50 for inhibition of calcium entry, HEK[STIM1] cells): 10.5 µM
O=C(Nc1scc(-c2cc(Cl)cc(Cl)c2)c1C(=O)O)c1ccc(Br)cc1 [Compound 19, 2-(4-bromobenzamido)-4-(3,5-dichlorophenyl)thiophene-3-carboxylic acid]	1.6 µM	> 70%	
O=C(Nc1scc(-c2ccc(Cl)cc2)c1C(=O)O)c1ccc(Br)cc1 [Compound 17, 2-(4-bromobenzamido)-4-(4-chlorophenyl)thiophene-3-carboxylic acid]	1 µM	> 70%	
O=C(Nc1scc(-c2cccc(Cl)c2)c1C(=O)O)c1cc2ccccc2s1 [Compound 46, 2-(benzothien-2-ylamido)-4-(3-chlorophenyl)thiophene-3-carboxylic acid]			% Inhibition at 10 μM [1]: >70%; IC50 [1]: 10.7 µM
Cc1ccc(-c2csc(NC(=O)c3ccc(Cl)cc3)c2C(=O)O)cc1 [Compound 34, 2-(4-chlorobenzamido)-4-(4-methylphenyl)thiophene-3-carboxylic acid]	1 µM		
O=C(Nc1scc(-c2ccc(Br)cc2)c1C(=O)O)c1ccc(Br)cc1 [Compound 18, 2-(4-bromobenzamido)-4-(4-bromophenyl)thiophene-3-carboxylic acid]	1.3 µM	> 70%	
Cc1ccc(-c2csc(NC(=O)c3ccc(Br)cc3)c2C(=O)O)cc1C [Compound 21, 2-(4-bromobenzamido)-4-(3,4-dimethylphenyl)thiophene-3-carboxylic acid]	4.6 µM	> 70%	
O=C(Nc1scc(-c2ccc(Cl)cc2Cl)c1C(=O)O)c1cc2ccccc2s1 [Compound 45, 2-(benzothien-2-ylamido)-4-(2,4-dichlorophenyl)thiophene-3-carboxylic acid]			% Inhibition at 10 μM [1]: >70%; IC50 [1]: 2.4 µM
Cc1ccc(-c2csc(NC(=O)c3cc4ccccc4s3)c2C(=O)O)cc1 [Compound 44, 2-(benzothien-2-ylamido)-4-(4-methylphenyl)thiophene-3-carboxylic acid]			% Inhibition at 10 μM [1]: <70%; IC50 [1]: 1.3 µM

More lines, main results first:

IC50 ([1]; Rattus norvegicus)	Compound	inhibition at 10 µM ([1]; Rattus norvegicus)	also measured
1.6 µM	O=C(Nc1scc(-c2ccc(Cl)cc2Cl)c1C(=O)O)c1ccc(Cl)cc1 [Compound 35, 2-(4-chlorobenzamido)-4-(2,4-dichlorophenyl)thiophene-3-carboxylic acid]	> 70%	
1 µM	O=C(Nc1scc(-c2ccc(Cl)cc2)c1C(=O)O)c1ccc(Cl)cc1 [Compound 33, 2-(4-chlorobenzamido)-4-(4-chlorophenyl)thiophene-3-carboxylic acid]		
1.2 µM	Cc1cccc(C(=O)Nc2scc(-c3ccc(Cl)cc3)c2C(=O)O)c1 [Compound 50, 2-(3-methylbenzamido)-4-(4-chlorophenyl)thiophene-3-carboxylic acid]		
4 µM	O=C(Nc1scc(-c2cccc(Cl)c2)c1C(=O)O)c1ccc(Br)cc1 [Compound 20, 2-(4-bromobenzamido)-4-(3-chlorophenyl)thiophene-3-carboxylic acid]	< 70%	
2.3 µM	O=C(Nc1scc(-c2ccc(Cl)cc2)c1C(=O)O)c1ccc(F)cc1 [Compound 2, 2-(4-fluorobenzamido)-4-(4-chlorophenyl)thiophene-3-carboxylic acid]		effect on recombinant hOrail/hSTIM1-dependent Ca2+ entry (hOrail/hSTIM1 [2]): inhibition; effect on Monster ICRAC (hOrail/hSTIM1 [3]): inhibit
0.8 µM	O=C(Nc1scc(-c2ccc(Br)cc2)c1C(=O)O)c1cccc(F)c1 [Compound 11, 2-(3-fluorobenzamido)-4-(4-bromophenyl)thiophene-3-carboxylic acid]		
0.6 µM	Cc1ccc(-c2csc(NC(=O)c3ccc(Br)cc3)c2C(=O)O)cc1 [Compound 16, 2-(4-bromobenzamido)-4-(4-methylphenyl)thiophene-3-carboxylic acid]		
3.3 µM	O=C(Nc1scc(-c2ccc(Cl)c(Cl)c2)c1C(=O)O)c1ccc(F)cc1 [Compound 3, 2-(4-fluorobenzamido)-4-(3,4-dichlorophenyl)thiophene-3-carboxylic acid]	> 70%	
2.4 µM	O=C(Nc1scc(-c2ccc(F)cc2)c1C(=O)O)c1ccc(Cl)cc1 [Compound 36, 2-(4-chlorobenzamido)-4-(4-fluorophenyl)thiophene-3-carboxylic acid]		
3 µM	O=C(Nc1scc(-c2ccc(Cl)c(Cl)c2)c1C(=O)O)c1ccc(Cl)cc1 [Compound 37, 2-(4-chlorobenzamido)-4-(3,4-dichlorophenyl)thiophene-3-carboxylic acid]	< 70%	
3 µM	Cc1ccc(-c2csc(NC(=O)c3cccc(C)c3)c2C(=O)O)cc1 [Compound 51, 2-(3-methylbenzamido)-4-(4-methylphenyl)thiophene-3-carboxylic acid]		
1.2 µM	O=C(Nc1scc(-c2ccc(Br)cc2)c1C(=O)O)c1ccc(Cl)cc1 [Compound 12, 2-(4-chlorobenzamido)-4-(4-bromophenyl)thiophene-3-carboxylic acid]		
2.1 µM	O=C(Nc1scc(-c2ccc(Cl)cc2Cl)c1C(=O)O)c1cccc(F)c1 [Compound 26, 2-(3-fluorobenzamido)-4-(2,4-dichlorophenyl)thiophene-3-carboxylic acid]	> 70%	

From US8524765B2, “Compounds that modulate intracellular calcium” (Calcimedica, Inc., priority 2007, dated 2013)
